The values that follow come from EP0900211B1 (PHARMACIA & UPJOHN COMPANY, priority 1996, dated 1997).

Each structure is given as a SMILES string. pKi: −log10 of the molar value.

In this assay the target is Stromelysin (Homo sapiens, UniProt P08254). Put plainly: MMP inhibition, particle concentration fluorescence assay. It is filed as biochemical. The note with it: in vitro; fluorescein/biotin substrate; MMP buffer pH 7.5; room temperature.
Chain of Stromelysin (P08254 100-477): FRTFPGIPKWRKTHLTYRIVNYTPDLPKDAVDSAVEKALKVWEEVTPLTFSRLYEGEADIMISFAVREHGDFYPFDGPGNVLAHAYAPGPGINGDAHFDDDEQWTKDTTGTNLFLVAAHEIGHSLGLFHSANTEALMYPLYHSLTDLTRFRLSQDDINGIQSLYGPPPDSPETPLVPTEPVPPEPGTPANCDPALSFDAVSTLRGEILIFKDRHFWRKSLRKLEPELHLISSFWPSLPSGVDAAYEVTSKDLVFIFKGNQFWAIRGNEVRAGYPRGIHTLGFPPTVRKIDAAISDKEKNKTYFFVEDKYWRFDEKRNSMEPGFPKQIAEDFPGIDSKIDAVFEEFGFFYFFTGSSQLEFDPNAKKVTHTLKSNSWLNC
Method: Inhibitory activity is evaluated in one or more of the MMP enzymes (stromelysin, gelatinase, and collagenase) in vitro using particle concentration fluorescence assay. An inhibitor binds to MMP enzymes which prevents the degradation of a substrate by stromelysin, gelatinase, or collagenase. The substrate has attached to it a fluorescein and a biotin moiety. The intact substrate then binds to an avidin-coated particle via the biotin moiety. Once the particle is washed and dried, a fluorescent signal is generated since the fluorescent group is attached to the particle. Without an inhibitor present, the substrate is degraded by MMP enzymes and the fluorescein group is removed, therefore, no fluorescent signal can be detected. Testing compounds are dissolved in DMSO to the desired concentration, then the solutions are diluted to 1:5 with MMP buffer (50 mM Tris-HCl, pH 7.5; 150 mM NaCl; 0.02% NaN3). Serial two-fold dilutions of each compound are prepared. A concentrated, activated enzyme solution is transferred into each plate of the testing compounds, and the mixture is incubated at room temperature for 15 minutes. […] At this point, the substrate mixture is mixed with 0.1% avidin-coated polystyrene particles. After 15 minutes, the fluorescence values are measured following filtration and washing of the beads. Ki values are then calculated.
As usually defined, the pKi is the Ki on a negative log10 scale, so that one unit is a factor of ten. Turning to `O=C(Nc1n[nH]c(=S)s1)N[C@@H](Cc1ccccc1)C(=O)NCCc1ccccc1` [Example 6, α-[[[(4,5-Dihydro-5-thioxo-1,3,4-thiadiazol-2-yl)amino]carbonyl]-amino]-N-(2-phenylethyl)-(S)-benzenepropanamide], the pKi was 6.52.
In the case of `O=C(Nc1n[nH]c(=S)s1)N[C@@H](Cc1ccccc1)C(=O)NCc1ccccn1` [Example 7, α-[[[(4,5-Dihydro-5-thioxo-1,3,4-thiadiazol-2-yl)amino]carbonyl]-amino]-N-(2-pyridinylmethyl)-(S)-benzenepropanamide] it was 5.96; in that of `CNC(=O)[C@H](Cc1c[nH]c2ccccc12)NC(=O)Nc1n[nH]c(=S)s1` [Example 13, α-[[[(4,5-Dihydro-5-thioxo-1,3,4-thiadiazol-2-yl)amino]carbonyl]-amino]-N-methyl-(S)-1H-indole-3-propanamide], 5.60; in that of `O=C(Nc1n[nH]c(=S)s1)N[C@@H](Cc1ccccc1)C(=O)NCc1ccncc1` [Example 17, α-[[[(4,5-Dihydro-5-thioxo-1,3,4-thiadiazol-2-yl)amino]-carbonyl]amino]-N-(4-pyridinylmethyl)-(S)-benzenepropanamide], 5.90.
In the case of `O=C(Nc1n[nH]c(=S)s1)N[C@@H](Cc1ccccc1)C(=O)NCc1cccnc1` [Example 18, α-[[[(4,5-Dihydro-5-thioxo-1,3,4-thiadiazol-2-yl)amino]carbonyl]-amino]-N-(3-pyridinylmethyl)-(S)-benzenepropanamide] it was 5.70; in that of `O=C(Nc1n[nH]c(=S)s1)N[C@@H](Cc1ccccc1)C(=O)NCCN1CCOCC1` [Example 19, α-[[[(4,5-Dihydro-5-thioxo-1,3,4-thiadiazol-2-yl)amino]carbonyl]-amino]-N-[2-(4-morpholinyl)ethyl]-(S)-benzenepropanamide], 5.70; in that of `CNC(=O)C(Cc1ccc(Br)cc1)NC(=O)Nc1n[nH]c(=S)s1` (stereo not drawn) [Example 20, α-[[[(4,5-Dihydro-5-thioxo-1,3,4-thiadiazol-2-yl)amino]carbonyl]-amino]-N-methyl-4-bromobenzene-propanamide], 6.10.
In the case of `COC(=O)[C@@H](NC(=O)Nc1n[nH]c(=S)s1)c1ccccc1` [Example 24, (S)-N-[[(4,5-Dihydro-5-thioxo-1,3,4-thiadiazol-2-yl)amino]carbonyl]-2-phenylglycine methyl ester] it was 5.12; in that of `CC(C)C[C@H](NC(=O)Nc1n[nH]c(=S)s1)C(=O)NCCc1ccccc1` [Example 28, 2-[[[(4,5-Dihydro-5-thioxo-1,3,4-thiadiazol-2-yl)amino]-carbonyl]amino]-4-methyl-N-(2-phenylethyl)-(S)-pentanamide], 5.46.
As for `CC(C)C[C@H](NC(=O)Nc1n[nH]c(=S)s1)C(=O)NCc1ccccc1` [Example 29, 2-[[[(4,5-Dihydro-5-thioxo-1,3,4-thiadiazol-2-yl)amino]carbonyl]amino]-4-methyl-N-(phenylmethyl)-(S)-pentanamide], the pKi was 5.35.
Under `COC(=O)[C@H](Cc1ccc(OC)cc1)NC(=O)Nc1n[nH]c(=S)s1` [Example 30, N-[[(4,5-Dihydro-5-thioxo-1,3,4-thiadiazol-2-yl)amino]carbonyl]-O-methyl-L-tyrosine methyl ester] stands 5.56; under `COC(=O)[C@H](Cc1ccc([N+](=O)[O-])cc1)NC(=O)Nc1n[nH]c(=S)s1` [Example 32, N-[[(4,5-Dihydro-5-thioxo-1,3,4-thiadiazol-2-yl)amino]carbonyl]-L-(4-nitrophenyl)alanine methyl ester], 5.73; under `O=C(Nc1n[nH]c(=S)s1)N[C@@H](Cc1ccc([N+](=O)[O-])cc1)C(=O)NCCc1ccccc1` [Example 34, α-[[[(4,5-Dihydro-5-thioxo-1,3,4-thiadiazol-2-yl)amino]carbonyl]amino]-4-nitro-N-(2-phenylethyl)-(S)-benzenepropanamide], 6.68.
